Assay results taken from PubChem BioAssay (NCI).
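All cell lines were grown in 96-well plates and treated with compound for 48 hours. At the GI50, growth is halved. TGI: total growth inhibition.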

Assays:
Assay in all cases: NCI-60 cell line screen, 48 h
SNB-75 CNS = tested on: SNB-75 CNS
SF-295 CNS = tested on: SF-295 CNS
UO-31 renal = tested on: UO-31 renal
HOP-62 NSCLC = tested on: HOP-62 NSCLC
COLO 205 colon = tested on: COLO 205 colon
KM12 colon = tested on: KM12 colon
SNB-19 CNS = tested on: SNB-19 CNS
TK-10 renal = tested on: TK-10 renal
NCI/ADR-RES ovarian = tested on: NCI/ADR-RES ovarian
MALME-3M melanoma = tested on: MALME-3M melanoma
SK-MEL-5 melanoma = tested on: SK-MEL-5 melanoma
HOP-92 NSCLC = tested on: HOP-92 NSCLC
RXF 393 renal = tested on: RXF 393 renal
SK-MEL-2 melanoma = tested on: SK-MEL-2 melanoma
BT-549 breast = tested on: BT-549 breast
OVCAR-3 ovarian = tested on: OVCAR-3 ovarian
A549 NSCLC = tested on: A549 NSCLC
HT29 colon = tested on: HT29 colon
MDA-MB-231 breast = tested on: MDA-MB-231 breast
NCI-H522 lung = tested on: NCI-H522 lung
UACC-62 melanoma = tested on: UACC-62 melanoma
CAKI-1 renal = tested on: CAKI-1 renal
OVCAR-5 ovarian = tested on: OVCAR-5 ovarian
HS 578T breast = tested on: HS 578T breast
HCT-116 colon = tested on: HCT-116 colon
NCI-H460 lung = tested on: NCI-H460 lung
EKVX NSCLC = tested on: EKVX NSCLC
SN12C renal = tested on: SN12C renal
SF-539 CNS = tested on: SF-539 CNS
U251 CNS = tested on: U251 CNS
OVCAR-8 ovarian = tested on: OVCAR-8 ovarian
HCT-15 colon = tested on: HCT-15 colon
RPMI-8226 leukemia = tested on: RPMI-8226 leukemia
UACC-257 melanoma = tested on: UACC-257 melanoma
SW-620 colon = tested on: SW-620 colon
NCI-H226 lung = tested on: NCI-H226 lung
MDA-MB-435 = tested on: MDA-MB-435
SK-MEL-28 melanoma = tested on: SK-MEL-28 melanoma
IGROV1 ovarian = tested on: IGROV1 ovarian
HCC-2998 colon = tested on: HCC-2998 colon
SF-268 CNS = tested on: SF-268 CNS
K-562 leukemia = tested on: K-562 leukemia
786-0 renal = tested on: 786-0 renal
NCI-H23 lung = tested on: NCI-H23 lung
A498 renal = tested on: A498 renal
OVCAR-4 ovarian = tested on: OVCAR-4 ovarian
SR leukemia = tested on: SR leukemia
MCF7 breast = tested on: MCF7 breast
DU-145 prostate = tested on: DU-145 prostate
SK-OV-3 ovarian = tested on: SK-OV-3 ovarian
LOX IMVI melanoma = tested on: LOX IMVI melanoma
MOLT-4 leukemia = tested on: MOLT-4 leukemia
ACHN renal = tested on: ACHN renal

Which GI50 (SNB-75 CNS) does the source give for Nc1ccccc1C#C/C=C\C#Cc1ccc(OCCCNC(=O)c2cc3ccccc3[nH]2)cc1 here?
The GI50 was 11.2 µM.

And the TGI (SNB-75 CNS)?
The TGI was 73.3 µM.

And the GI50 (SF-295 CNS)?
The GI50 was 12.1 µM.

What about the TGI (SF-295 CNS) of the same compound?
Its TGI is 47.1 µM.

And the GI50 (UO-31 renal)?
Its GI50 is 41.7 µM.

What about the TGI (UO-31 renal) of the same compound?
Its TGI is greater than 100 µM.

What about the GI50 (HOP-62 NSCLC) of the same compound?
Its GI50 is 15.7 µM.

And the TGI (HOP-62 NSCLC)?
Its TGI is 35.7 µM.

And the GI50 (COLO 205 colon)?
Its GI50 is 9.12 µM.

And the TGI (COLO 205 colon)?
Its TGI is greater than 100 µM.

And the GI50 (KM12 colon)?
Its GI50 is 5.98 µM.

And the TGI (KM12 colon)?
Its TGI is greater than 100 µM.

What about the GI50 (SNB-19 CNS) of the same compound?
Its GI50 is 20.6 µM.

What about the TGI (SNB-19 CNS) of the same compound?
The TGI was 56.8 µM.

And the GI50 (TK-10 renal)?
The GI50 was 17.3 µM.

What about the TGI (TK-10 renal) of the same compound?
Its TGI is 53.5 µM.

And the GI50 (NCI/ADR-RES ovarian)?
Its GI50 is 10.1 µM.

And the TGI (NCI/ADR-RES ovarian)?
The TGI was greater than 100 µM.

And the GI50 (MALME-3M melanoma)?
The GI50 was 1.08 µM.

What about the TGI (MALME-3M melanoma) of the same compound?
Its TGI is 18.3 µM.

What about the GI50 (SK-MEL-5 melanoma) of the same compound?
The GI50 was 2.09 µM.

And the TGI (SK-MEL-5 melanoma)?
The TGI was 25.7 µM.

And the GI50 (HOP-92 NSCLC)?
The GI50 was 14.4 µM.

And the TGI (HOP-92 NSCLC)?
Its TGI is 37.5 µM.

And the GI50 (RXF 393 renal)?
Its GI50 is 7.15 µM.

And the TGI (RXF 393 renal)?
The TGI was 22 µM.

And the GI50 (SK-MEL-2 melanoma)?
Its GI50 is greater than 100 µM.

And the TGI (SK-MEL-2 melanoma)?
Its TGI is greater than 100 µM.

And the GI50 (BT-549 breast)?
The GI50 was 9.23 µM.

What about the TGI (BT-549 breast) of the same compound?
The TGI was greater than 100 µM.

What about the GI50 (OVCAR-3 ovarian) of the same compound?
Its GI50 is 11.7 µM.

And the TGI (OVCAR-3 ovarian)?
Its TGI is 95.6 µM.

What about the GI50 (A549 NSCLC) of the same compound?
Its GI50 is 11.6 µM.

And the TGI (A549 NSCLC)?
Its TGI is 31.3 µM.

What about the GI50 (HT29 colon) of the same compound?
Its GI50 is 32 µM.

What about the TGI (HT29 colon) of the same compound?
Its TGI is greater than 100 µM.

And the GI50 (MDA-MB-231 breast)?
The GI50 was 1.93 µM.

What about the TGI (MDA-MB-231 breast) of the same compound?
The TGI was 14.6 µM.

What about the GI50 (NCI-H522 lung) of the same compound?
The GI50 was greater than 100 µM.

What about the TGI (NCI-H522 lung) of the same compound?
The TGI was greater than 100 µM.

And the GI50 (UACC-62 melanoma)?
Its GI50 is 4.11 µM.

What about the TGI (UACC-62 melanoma) of the same compound?
The TGI was greater than 100 µM.

And the GI50 (CAKI-1 renal)?
The GI50 was 18.1 µM.

What about the TGI (CAKI-1 renal) of the same compound?
Its TGI is 72 µM.

And the GI50 (OVCAR-5 ovarian)?
The GI50 was 32.3 µM.

What about the TGI (OVCAR-5 ovarian) of the same compound?
The TGI was greater than 100 µM.

What about the GI50 (HS 578T breast) of the same compound?
The GI50 was 15.1 µM.

What about the TGI (HS 578T breast) of the same compound?
Its TGI is greater than 100 µM.

What about the GI50 (HCT-116 colon) of the same compound?
The GI50 was 12.4 µM.

And the TGI (HCT-116 colon)?
Its TGI is 40.6 µM.

And the GI50 (NCI-H460 lung)?
Its GI50 is 9.83 µM.

What about the TGI (NCI-H460 lung) of the same compound?
The TGI was greater than 100 µM.

What about the GI50 (EKVX NSCLC) of the same compound?
The GI50 was 16.4 µM.

What about the TGI (EKVX NSCLC) of the same compound?
Its TGI is 92.7 µM.

And the GI50 (SN12C renal)?
Its GI50 is 7.32 µM.

What about the TGI (SN12C renal) of the same compound?
Its TGI is 39.8 µM.

What about the GI50 (SF-539 CNS) of the same compound?
The GI50 was 18.2 µM.

And the TGI (SF-539 CNS)?
Its TGI is 37.5 µM.

What about the GI50 (U251 CNS) of the same compound?
The GI50 was 12.5 µM.

And the TGI (U251 CNS)?
The TGI was 25 µM.

And the GI50 (OVCAR-8 ovarian)?
Its GI50 is 42.4 µM.

And the TGI (OVCAR-8 ovarian)?
The TGI was greater than 100 µM.

And the GI50 (HCT-15 colon)?
The GI50 was greater than 100 µM.

What about the TGI (HCT-15 colon) of the same compound?
The TGI was greater than 100 µM.

And the GI50 (RPMI-8226 leukemia)?
The GI50 was 1.01 µM.

What about the TGI (RPMI-8226 leukemia) of the same compound?
Its TGI is 17.6 µM.

And the GI50 (UACC-257 melanoma)?
The GI50 was 13 µM.

And the TGI (UACC-257 melanoma)?
The TGI was 53.3 µM.

And the GI50 (SW-620 colon)?
The GI50 was greater than 100 µM.

And the TGI (SW-620 colon)?
Its TGI is greater than 100 µM.

And the GI50 (NCI-H226 lung)?
The GI50 was 14.4 µM.

And the TGI (NCI-H226 lung)?
The TGI was 87.7 µM.

What about the GI50 (MDA-MB-435) of the same compound?
Its GI50 is 20.6 µM.

What about the TGI (MDA-MB-435) of the same compound?
The TGI was greater than 100 µM.

And the GI50 (SK-MEL-28 melanoma)?
Its GI50 is greater than 100 µM.

And the TGI (SK-MEL-28 melanoma)?
The TGI was greater than 100 µM.

And the GI50 (IGROV1 ovarian)?
Its GI50 is 25.5 µM.

What about the TGI (IGROV1 ovarian) of the same compound?
Its TGI is greater than 100 µM.

And the GI50 (HCC-2998 colon)?
The GI50 was 31.5 µM.

And the TGI (HCC-2998 colon)?
Its TGI is greater than 100 µM.

And the GI50 (SF-268 CNS)?
The GI50 was 2.37 µM.

And the TGI (SF-268 CNS)?
The TGI was 37.4 µM.

What about the GI50 (K-562 leukemia) of the same compound?
Its GI50 is 16.1 µM.

And the TGI (K-562 leukemia)?
The TGI was greater than 100 µM.

What about the GI50 (786-0 renal) of the same compound?
Its GI50 is 12.6 µM.

And the TGI (786-0 renal)?
The TGI was 25.7 µM.

What about the GI50 (NCI-H23 lung) of the same compound?
The GI50 was 7.62 µM.

What about the TGI (NCI-H23 lung) of the same compound?
Its TGI is 43.6 µM.

What about the GI50 (A498 renal) of the same compound?
The GI50 was 23 µM.

And the TGI (A498 renal)?
The TGI was 48.3 µM.

What about the GI50 (OVCAR-4 ovarian) of the same compound?
The GI50 was 21.4 µM.

And the TGI (OVCAR-4 ovarian)?
Its TGI is greater than 100 µM.

What about the GI50 (SR leukemia) of the same compound?
Its GI50 is 23.3 µM.

And the TGI (SR leukemia)?
The TGI was 99 µM.

What about the GI50 (MCF7 breast) of the same compound?
Its GI50 is 1.26 µM.

And the TGI (MCF7 breast)?
Its TGI is 7.15 µM.

And the GI50 (DU-145 prostate)?
Its GI50 is 35.4 µM.

And the TGI (DU-145 prostate)?
Its TGI is greater than 100 µM.

What about the GI50 (SK-OV-3 ovarian) of the same compound?
Its GI50 is 4.36 µM.

What about the TGI (SK-OV-3 ovarian) of the same compound?
The TGI was 33.1 µM.

And the GI50 (LOX IMVI melanoma)?
Its GI50 is 2.77 µM.

And the TGI (LOX IMVI melanoma)?
The TGI was 28.7 µM.

What about the GI50 (MOLT-4 leukemia) of the same compound?
The GI50 was 49.4 µM.

And the TGI (MOLT-4 leukemia)?
The TGI was greater than 100 µM.

What about the GI50 (ACHN renal) of the same compound?
Its GI50 is 6.61 µM.

And the TGI (ACHN renal)?
Its TGI is 40.9 µM.
